Details: maltodextrin-coated vitamin tablet sealed approximately one week with sorbent pad loaded with approximately 200 mg 2-butanol; ingested; breath at approximately 10 minutes after ingestion
Description: Referring to FIG. 3, a vitamin tablet was dipped into a maltodextrin/water solution and the tablet was allowed to dry. A tiny sorbent pad loaded with approximately 200 mg of 2-butanol was added to the bottom of a tiny plastic vial to simulate a blister cavity. The dry coated tablet was then added to the vial and sealed via a screw top. After approximately one week, the vial was opened and the tablet was ingested by an individual.

CCC(C)O (stereo not shown) [2-butanol]
2-butanone, a metabolite of 2-butanol, detected in the individual's breath: significant quantity
